Laboratory results: ChEMBL document CHEMBL5500371, “Arginine and tryptophan-rich dendritic antimicrobial peptides that disrupt membranes for bacterial infection in vivo” (Eur J Med Chem, 2024)
Calls of active or inactive are those of the source. The rule behind the calls is not given here. Where a SMILES comes first, the peptide text is derived from it. Side-chain parts run from the residue outwards.

Assays:
Escherichia coli [1] = experiment: Antibacterial activity against Escherichia coli ATCC 25922 assessed as inhibition of bacterial growth incubated for 20 hrs in presence of NaCl by broth microdilution method (reference value: 4 microM); assay type: functional, organism-based
Cell membrane = experiment: Induction of cell membrane damage in Staphylococcus aureus assessed as PI uptake at 2 times MIC measured after 2 hrs by PI dye based flow cytometry analysis (reference value: 28.8%); assay type: cell membranes
Escherichia coli [2] = experiment: Resistant development in Escherichia coli assessed as increase in MIC at sub-MIC measured after 20 passages; assay type: functional, organism-based
Staphylococcus aureus [3] = experiment: Resistant development in Staphylococcus aureus assessed as increase in MIC at sub-MIC measured after 20 passages; assay type: functional, organism-based
Escherichia coli [4] = experiment: Synergistic antibacterial activity against Escherichia coli ATCC 25922 assessed as fractional inhibitory concentration index at 0.25 to 4 times MIC incubated for 20 hrs in presence of rifampicin by checkerboard assay; assay type: functional, organism-based
Escherichia coli [5] = experiment: […] activity against Escherichia coli ATCC 25922 infected in male BALB/c pulmonary infection model assessed as reduction in liver bleeding at 10 mg/kg, ip administered at 3 and 12 hrs post infection and measured 24 hrs post infection by H and E staining based analysis; assay type: functional, organism-based; details: time 12-21 hrs
Escherichia coli [6] = experiment: Antibacterial activity against Escherichia coli ATCC 25922 assessed as inhibition of bacterial growth incubated for 20 hrs in presence of KCl by broth microdilution method (reference value: 8 microM); assay type: functional
Escherichia coli [7] = experiment: Antibacterial activity against Escherichia coli ATCC 25922 assessed as inhibition of bacterial growth incubated for 20 hrs in presence of MgCl2 by broth microdilution method (reference value: 8 microM); assay type: functional
Staphylococcus aureus [8] = experiment: Antibacterial activity against Staphylococcus aureus ATCC 25923 assessed as inhibition of bacterial growth incubated for 20 hrs in presence of NaCl by broth microdilution method (reference value: 8 microM); assay type: functional
Staphylococcus aureus [9] = experiment: Antibacterial activity against Staphylococcus aureus ATCC 25923 assessed as inhibition of bacterial growth incubated for 20 hrs in presence of MgCl2 by broth microdilution method (reference value: 8 microM); assay type: functional
Staphylococcus aureus [10] = experiment: Antibacterial activity against Staphylococcus aureus ATCC 25923 assessed as inhibition of bacterial growth incubated for 20 hrs in presence of ZnCl2 by broth microdilution method (reference value: 8 microM); assay type: functional
[11] = Systemic toxicity in male BALB/c mouse assessed as renal cell necrosis at 105.41 mg/kg, ip administered as single dose by H and E staining based analysis; assay type: organism-based; details: in vivo
Escherichia coli [12] = experiment: […] activity against Escherichia coli ATCC 25922 infected in male BALB/c pulmonary infection model assessed as reduction in bacterial colonies at 5 to 10 mg/kg, ip administered at 3 and 12 hrs post infection and measured 24 hrs post infection; assay type: functional, organism-based; details: dose 5-10 mg/kg, time 12-21 hrs
Escherichia coli [13] = experiment: Antibacterial activity against Escherichia coli ATCC 25922 assessed as inhibition of bacterial growth incubated for 20 hrs in presence of NaCl by broth microdilution method (reference value: 16 microM); assay type: functional
Escherichia coli [14] = experiment: Antibacterial activity against Escherichia coli ATCC 25922 assessed as inhibition of bacterial growth incubated for 20 hrs in presence of MgCl2 by broth microdilution method (reference value: 16 microM); assay type: functional
Escherichia coli [15] = experiment: Antibacterial activity against Escherichia coli ATCC 25922 assessed as inhibition of bacterial growth incubated for 20 hrs in presence of ZnCl2 by broth microdilution method (reference value: 16 microM); assay type: functional
Staphylococcus aureus [16] = experiment: Antibacterial activity against Staphylococcus aureus ATCC 25923 assessed as inhibition of bacterial growth upto 20 ug/ml pretreated with chymotrypsin for 6 hrs and measured after 18 hrs by absorbance based method; assay type: functional, organism-based; details: dose <= 20.0 µg/ml, time 24.0 hrs
Escherichia coli [17] = experiment: Additive antibacterial activity against Escherichia coli ATCC 25922 assessed as fractional inhibitory concentration index at 0.25 to 4 times MIC incubated for 20 hrs in presence of rifampicin by checkerboard assay; assay type: functional
Escherichia coli [18] = experiment: Additive antibacterial activity against Escherichia coli ATCC 25922 assessed as fractional inhibitory concentration index at 0.25 to 4 times MIC incubated for 20 hrs in presence of gentamicin by checkerboard assay; assay type: functional
Escherichia coli [19] = experiment: Additive antibacterial activity against rifampicin resistant Escherichia coli ATCC 25922 assessed as fractional inhibitory concentration index at 0.25 to 4 times MIC incubated for 20 hrs in presence of rifampicin by checkerboard assay; assay type: functional
[20] = Systemic toxicity in male BALB/c mouse assessed as hepatocyte hemorrhage at 109.31 mg/kg, ip administered as single dose by H and E staining based analysis; assay type: organism-based; details: hepatocytes
[21] = Systemic toxicity in male BALB/c mouse assessed as lung inflammatory cell infiltration at 109.31 mg/kg, ip administered as single dose by H and E staining based analysis; assay type: organism-based; details: in vivo

POLYMYXIN B
MIC (Escherichia coli [1]): 4 µM | Activity (Cell membrane): 76.2% | Activity (Escherichia coli [2]): inactive | Activity (Staphylococcus aureus [3]): inactive | fractional inhibitory concentration index (FICI) (Escherichia coli [4]): 0.313 | Activity (Escherichia coli [5]): inactive

N=C(N)NCCC[C@H](NC(=O)[C@H](CCCNC(=N)N)NC(=O)[C@H](CCCNC(=N)N)NC(=O)[C@@H](N)CCCNC(=N)N)C(=O)N[C@@H](CCCCN)C(=O)N[C@@H](Cc1c[nH]c2ccccc12)C(=O)N[C@@H](Cc1c[nH]c2ccccc12)C(=O)N[C@@H](Cc1c[nH]c2ccccc12)C(=O)N[C@@H](Cc1c[nH]c2ccccc12)C(N)=O
MIC (Escherichia coli [6]): 16 µM | MIC (Escherichia coli [7]): 16 µM | MIC (Staphylococcus aureus [8]): 8 µM | MIC (Staphylococcus aureus [9]): 16 µM | MIC (Staphylococcus aureus [10]): 8 µM | Activity [11]: Non-Toxic | Activity (Escherichia coli [12]): Active

N=C(N)NCCC[C@H](NC(=O)[C@@H](N)CCCNC(=N)N)C(=O)NCCCC[C@H](NC(=O)[C@H](CCCNC(=N)N)NC(=O)[C@@H](N)CCCNC(=N)N)C(=O)N[C@@H](Cc1c[nH]c2ccccc12)C(=O)N[C@@H](Cc1c[nH]c2ccccc12)C(=O)N[C@@H](Cc1c[nH]c2ccccc12)C(=O)N[C@@H](Cc1c[nH]c2ccccc12)C(N)=O (H-RRK([Arg-Arg])WWWW-NH2)
MIC (Escherichia coli [13]): 32 µM | MIC (Escherichia coli [14]): 16 µM | MIC (Escherichia coli [15]): 8 µM | Activity (Staphylococcus aureus [16]): Active | fractional inhibitory concentration index (FICI) (Escherichia coli [17]): 0.563 | fractional inhibitory concentration index (FICI) (Escherichia coli [18]): 0.563 | fractional inhibitory concentration index (FICI) (Escherichia coli [19]): 0.563 | Activity [20]: Non-Toxic | Activity [21]: Non-Toxic
